We go through ten molecules from ChEMBL document CHEMBL4680089, “Development of Allosteric Hydrazide-Containing Class I Histone Deacetylase Inhibitors for Use in Acute Myeloid Leukemia” (J Med Chem, 2016).

Each structure is given as a SMILES string. Active and inactive are the calls of the source. The calls are words filed in the database; no cut-off is given here.

Series [1] can be described thus: Drug metabolism in human liver microsomes assessed as o-glucuronidated metabolite formation in presence of UDP glucuronic acid incubated for 12 hrs at 37 degC by electrospray ionization liquid chromatography mass spectrometry. The series is classed as ADME, Microsome.
A short description of series [2]: Drug metabolism in human liver microsomes assessed as o-glucuronidated metabolite formation in absence of UDP glucuronic acid incubated for 12 hrs at 37 degC by electrospray ionization liquid chromatography mass spectrometry. Format: ADME, Microsome. In general terms: Liver microsomes are a subcellular fraction often used to study metabolism.
For a further series, the system named is MV4-11. Description: cells. Format: functional, cell-based. The settings on record: Homo sapiens, MV4-11, 48 h.
The next series has as its target Histone deacetylase 3 (Homo sapiens, UniProt O15379). Briefly: Allosteric inhibition of C-terminal His-tagged recombinant human HDAC3 expressed in Sf9 cells pre-incubated for 2 hrs before acetylated lysine-aminomethyl coumarin-BOC addition and measured after 2 hrs by fluorescence based assay.
Series [3] has as its target T1, Class 1 histone deacetylase (Homo sapiens) (UniProt Q13547+O15379+Q92769+Q9BY41). The note with it: time 24.0 hrs.
Series [4] has as its target T1, Class 1 histone deacetylase (Homo sapiens). The note with it: time 24.0 hrs. This is another data set of the same source.
A short description of series [5]: Cytotoxicity against human PBMC assessed as reduction in cell viability at 10 nM incubated for 24 hrs by Cell-titer-blue cell viability assay. The settings on record: 0.01 µM.
For a further series, the system named is HEK293. Description: Cytotoxicity against HEK293 cells assessed as reduction in cell viability incubated for 48 hrs by Cell-titer-blue cell viability assay. The settings on record: human, hek293, 48 h. Format: cell-based.
The target of series [6] is T2, Protein deacetylase HDAC6 (Homo sapiens) (UniProt Q9UBN7).
T2 sequence (whole entry): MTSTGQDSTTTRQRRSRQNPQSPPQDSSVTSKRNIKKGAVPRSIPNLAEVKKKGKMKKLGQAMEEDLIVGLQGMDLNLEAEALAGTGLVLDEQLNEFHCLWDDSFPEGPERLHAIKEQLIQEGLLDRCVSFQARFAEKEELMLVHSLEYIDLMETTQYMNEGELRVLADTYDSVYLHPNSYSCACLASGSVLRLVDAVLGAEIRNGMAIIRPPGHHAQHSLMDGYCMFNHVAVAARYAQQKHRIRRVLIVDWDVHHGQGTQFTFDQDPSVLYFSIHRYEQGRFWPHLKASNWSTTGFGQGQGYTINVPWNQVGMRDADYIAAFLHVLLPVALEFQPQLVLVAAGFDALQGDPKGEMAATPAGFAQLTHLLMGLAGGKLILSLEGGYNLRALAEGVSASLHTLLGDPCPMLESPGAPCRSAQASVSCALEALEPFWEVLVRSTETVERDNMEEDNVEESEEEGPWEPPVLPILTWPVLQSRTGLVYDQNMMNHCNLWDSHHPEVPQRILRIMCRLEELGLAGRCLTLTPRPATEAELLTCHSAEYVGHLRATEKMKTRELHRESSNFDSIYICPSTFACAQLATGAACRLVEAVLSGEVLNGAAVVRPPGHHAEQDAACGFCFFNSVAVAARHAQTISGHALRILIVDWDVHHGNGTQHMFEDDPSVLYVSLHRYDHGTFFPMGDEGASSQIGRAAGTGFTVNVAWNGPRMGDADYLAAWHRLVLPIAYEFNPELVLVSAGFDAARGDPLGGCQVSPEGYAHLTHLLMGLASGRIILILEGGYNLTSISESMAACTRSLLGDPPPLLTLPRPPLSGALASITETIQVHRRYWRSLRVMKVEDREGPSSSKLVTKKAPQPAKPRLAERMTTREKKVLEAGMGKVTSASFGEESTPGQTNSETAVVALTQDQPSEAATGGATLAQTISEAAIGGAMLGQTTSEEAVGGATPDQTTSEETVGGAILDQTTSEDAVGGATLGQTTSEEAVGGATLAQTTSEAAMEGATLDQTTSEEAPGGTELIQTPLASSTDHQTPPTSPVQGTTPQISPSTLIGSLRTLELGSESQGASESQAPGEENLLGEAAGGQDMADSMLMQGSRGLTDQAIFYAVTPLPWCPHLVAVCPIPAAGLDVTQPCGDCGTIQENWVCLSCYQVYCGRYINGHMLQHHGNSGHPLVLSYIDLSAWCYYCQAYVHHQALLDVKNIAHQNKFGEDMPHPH
The settings on record: MV4-11, dose 100.0 nM, time 24.0 hrs.

Series [7] can be described thus: Cytotoxicity against human PBMC assessed as reduction in cell viability incubated for 24 hrs by Cell-titer-blue cell viability assay relative to panobinostat.
A further series concerns MOLM-14. Briefly: Cytotoxicity against human MOLM-14 cells assessed as reduction in cell viability incubated for 48 hrs by Cell-titer-blue cell viability assay. The series is classed as functional, cell-based. The note with it: MOLM-14, 48 h.
The test system of the next series is RS4-11. Briefly: Cytotoxicity against human RS4-11 cells assessed as reduction in cell viability incubated for 48 hrs by Cell-titer-blue cell viability assay. The settings on record: RS4-11, 48 h. Format: functional, cell-based.
Another series relates to K562. Briefly: Cytotoxicity against human K562 cells assessed as reduction in cell viability incubated for 48 hrs by Cell-titer-blue cell viability assay. The series is classed as functional, cell-based. The note with it: K562, 48 h.
Another series deals with HL-60. Description: Cytotoxicity against human HL-60 cells assessed as reduction in cell viability incubated for 48 hrs by Cell-titer-blue cell viability assay. Format: functional, cell-based. The settings on record: HL-60, 48 h.
For the next series, the system named is RPMI-8226. Description: Cytotoxicity against human RPMI-8226 cells assessed as reduction in cell viability incubated for 48 hrs by Cell-titer-blue cell viability assay. The series is classed as functional, cell-based. The note with it: RPMI-8226, 48 h.
Series [8] in a line: Drug metabolism in human liver microsomes assessed as compound reduction in absence of UDP glucuronic acid incubated for 12 hrs at 37 degC by electrospray ionization liquid chromatography mass spectrometry. The series is classed as ADME, Microsome.
Where [9] appears, read: MV4-11, filed as negative allosteric modulator, dose 100.0 nM.

The EC50 is the concentration giving half of the maximal effect. As a reminder, the IC50 is the concentration needed to halve the response being measured.

T1 sequence (O15379 whole entry, looked up): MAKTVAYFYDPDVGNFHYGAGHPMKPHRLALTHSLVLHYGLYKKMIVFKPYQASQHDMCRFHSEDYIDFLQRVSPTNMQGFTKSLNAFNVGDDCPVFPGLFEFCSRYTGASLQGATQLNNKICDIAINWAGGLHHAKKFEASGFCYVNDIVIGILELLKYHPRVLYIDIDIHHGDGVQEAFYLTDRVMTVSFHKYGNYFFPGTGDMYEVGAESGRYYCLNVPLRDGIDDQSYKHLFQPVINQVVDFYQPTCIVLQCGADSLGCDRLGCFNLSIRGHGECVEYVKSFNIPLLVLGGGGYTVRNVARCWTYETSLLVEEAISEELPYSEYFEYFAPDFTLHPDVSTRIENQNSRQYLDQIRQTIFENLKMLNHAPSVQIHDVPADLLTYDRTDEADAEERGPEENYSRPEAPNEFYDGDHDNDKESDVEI
T1 sequence (Q13547 whole entry, looked up): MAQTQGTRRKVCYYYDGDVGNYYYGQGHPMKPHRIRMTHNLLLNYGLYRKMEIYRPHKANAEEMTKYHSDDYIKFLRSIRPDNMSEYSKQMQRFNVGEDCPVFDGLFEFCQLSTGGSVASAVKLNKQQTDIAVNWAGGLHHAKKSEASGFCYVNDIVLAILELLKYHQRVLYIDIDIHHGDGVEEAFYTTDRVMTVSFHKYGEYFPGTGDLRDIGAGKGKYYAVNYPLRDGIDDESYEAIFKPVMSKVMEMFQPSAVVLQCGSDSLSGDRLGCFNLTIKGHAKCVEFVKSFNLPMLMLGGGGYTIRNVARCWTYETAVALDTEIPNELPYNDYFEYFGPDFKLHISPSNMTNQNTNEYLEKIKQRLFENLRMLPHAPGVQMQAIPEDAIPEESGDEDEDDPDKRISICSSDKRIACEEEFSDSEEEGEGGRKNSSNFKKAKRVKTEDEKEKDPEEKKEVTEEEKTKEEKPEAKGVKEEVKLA
T1 sequence (Q92769 whole entry, looked up): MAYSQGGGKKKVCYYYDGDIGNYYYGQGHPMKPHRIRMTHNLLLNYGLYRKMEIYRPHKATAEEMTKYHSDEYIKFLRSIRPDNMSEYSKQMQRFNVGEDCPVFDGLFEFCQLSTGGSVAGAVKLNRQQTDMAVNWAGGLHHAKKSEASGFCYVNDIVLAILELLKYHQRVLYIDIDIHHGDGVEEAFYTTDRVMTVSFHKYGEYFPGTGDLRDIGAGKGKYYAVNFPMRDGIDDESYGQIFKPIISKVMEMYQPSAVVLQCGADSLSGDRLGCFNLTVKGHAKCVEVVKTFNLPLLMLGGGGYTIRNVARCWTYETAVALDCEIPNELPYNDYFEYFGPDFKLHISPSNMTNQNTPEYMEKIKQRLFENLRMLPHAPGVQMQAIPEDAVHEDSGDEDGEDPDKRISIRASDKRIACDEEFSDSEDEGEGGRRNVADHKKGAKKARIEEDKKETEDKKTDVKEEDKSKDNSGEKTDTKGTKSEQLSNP
T1 sequence (Q9BY41 whole entry, looked up): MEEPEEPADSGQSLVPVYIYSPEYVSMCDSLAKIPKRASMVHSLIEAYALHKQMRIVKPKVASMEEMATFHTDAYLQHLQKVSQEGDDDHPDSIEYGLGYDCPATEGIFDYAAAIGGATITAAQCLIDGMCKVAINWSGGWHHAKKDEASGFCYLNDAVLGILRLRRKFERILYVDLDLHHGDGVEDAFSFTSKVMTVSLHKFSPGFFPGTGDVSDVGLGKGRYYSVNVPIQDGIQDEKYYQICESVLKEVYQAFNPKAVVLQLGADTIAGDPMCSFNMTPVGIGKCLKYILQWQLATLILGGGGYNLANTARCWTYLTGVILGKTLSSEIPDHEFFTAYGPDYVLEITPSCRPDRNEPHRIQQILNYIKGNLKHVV
Histone deacetylase 3, sequence (O15379 whole entry): as the sequence (O15379 whole entry, looked up) above
Description for MV4-11: Cytotoxicity against human MV4-11 cells assessed as reduction in cell viability incubated for 48 hrs by Cell-titer-blue cell viability assay

Turning to `O=C(CCCCCCC(=O)Nc1ccccc1)NO` [VORINOSTAT], the Drug metabolism entry in series [1] was “Metabolite_Detected”; in series [2], “Metabolite_Notdetected”.
In turn, `Nc1ccccc1NC(=O)c1ccc(CNC(=O)OCc2cccnc2)cc1` [ENTINOSTAT] gave an EC50 in the series with MV4-11 of less than 0.03 µM.
In the case of `CC/C=N/NC(=O)c1ccc(CNC(=O)c2ccccc2)cc1`, at Histone deacetylase 3, the IC50 was more than 10 µM. Moreover, the inhibition result is “inactive” in series [3] (MV4-11, dose 100.0 nM) and “inactive” in [4] (MV4-11, dose 100.0 nM).
`C/C=C/CNNC(=O)c1ccc(CNC(=O)c2ccccc2)cc1`: on Histone deacetylase 3, the IC50 is 1.55 µM.
Molecule `Cc1[nH]c2ccccc2c1CCNCc1ccc(/C=C/C(=O)NO)cc1` [PANOBINOSTAT] came in with a concentration giving a half-maximal response (EC50) in the series with MV4-11 of less than 0.03 µM. Further, in series [5], the Activity result was “Toxic”.
For the molecule `CCCNNC(=O)c1ccc(CNC(=O)c2ccccc2)cc1`, the Drug metabolism result in [1] and in series [2] was “Metabolite_Notdetected” in each case. The Activity result (in the series with HEK293; in [7]) was “Non-Toxic” each time. Besides, the inhibition entry in series [3] (setting [9]) and in series [4] (setting [9]) was “Active” each time. Besides, the inhibition entry in [6] is “inactive”.
For `CCCNNC(=O)c1ccc(CNC(=O)/C=C/c2ccccc2)cc1`, the values for the Drug metabolism result in series [1], in [2] and in [8] were “Metabolite_Notdetected”, “Metabolite_Notdetected” and “Metabolite_Detected”, respectively. In addition, the EC50 in the series with MV4-11 was 0.0364 µM; in the series with MOLM-14, 0.0766 µM; in the series on RS4-11, 0.152 µM; in the series on K562, 2.16 µM; in the series on HL-60, more than 10 µM; in the series on RPMI-8226, more than 10 µM. Also, the Activity entry (with HEK293; in [7]) was “Non-Toxic” throughout. In addition, the inhibition result in series [3] (setting [9]) and in [4] (setting [9]) was “Active” in each case. For the same molecule, in [6], the inhibition entry is “inactive”.
Consider `CCCCNNC(=O)c1cccc2ccccc12`, for which, on Histone deacetylase 3, the IC50 was more than 10 µM.
Regarding `CCCCNNC(=O)c1ccc(CNC(=O)c2ccccc2)cc1`, the Drug metabolism entry in [1] and in series [2] was “Metabolite_Notdetected” in each case. The Activity result with HEK293 is “Non-Toxic”. The inhibition entry in [3] (setting [9]) and in series [4] (setting [9]) was “Active” in each case. The inhibition result in series [6] is “inactive”.
As for `CC(C)NNC(=O)c1ccc(CNC(=O)c2ccccc2)cc1`, the half-maximal inhibitory concentration (IC50) at Histone deacetylase 3 was more than 10 µM.
